Results on two compounds are retold here after patent publication US11938133B2, “Stable pharmaceutical composition for oral administration” (ASTELLAS PHARMA INC., priority 2015, dated 2024).

Molecules are shown by their SMILES.

Series [1] in a line: Calculation of proportion of crystals by near-infrared spectroscopy. The format is physicochemical. The following applies: Compound A hemifumarate after water was added to the crystals and dried (material used for Examples 4 to 15). The protocol:
As a method of calculating the proportion of crystals of Compound A hemifumarate in Compound A hemifumarate, for example, the spectrum is measured, as a near-infrared spectroscopy measurement, by a Fourier transform near-infrared spectrometer (MPA, Bruker Optics K. K.)(measurement range; 12500 cm^−1 to 5800 cm^−1, resolution; 8 cm^−1, number of scans; 32), and the obtained spectrum is secondary-differentiated (Savitzky-Golay convolution method), and can be analyzed using a near-infrared spectrum analysis software (for example, OPUS, Bruker Optics K. K.). The pharmaceutical composition for oral administration is powdered using a mortar and pestle to measure the spectrum. Before the spectrum measurement of the pharmaceutical composition for oral administration, spectra of preparations, in which crystals of Compound A hemifumarate are mixed in various proportions, are regression-analyzed by a partial least square method to create a calibration curve, and each spectrum obtained from the pharmaceutical composition for oral administration is interpolated into the calibration curve to calculate the proportion of crystals of Compound A hemifumarate.
With respect to the tablets (film coated tablets) prepared in Comparative Example 1, Example 1, Example 2, and Example 3, the proportion of crystals of Compound A hemifumarate after production was calculated by near-infrared spectroscopy. […]

Series [2] can be described thus: Stability of drug substance alone in heat and humidity (severity test or the like). The note with it: certain storage conditions such as a severity test. The format is physicochemical.
Series [3] concerns EML4 (Echinoderm microtubule associated protein like-4)-ALK (Anaplastic lymphoma kinase) fusion protein. The following applies: reported in Patent literature 1 (WO 2010/128659); cited from earlier work.

Regarding `CCc1nc(C(N)=O)c(Nc2ccc(N3CCC(N4CCN(C)CC4)CC3)c(OC)c2)nc1NC1CCOCC1` [Compound A hemifumarate], the Proportion of crystals in series [1] is 62%. Besides, the “Stability of drug substance alone (in words)” value in series [2] is “stable in heat and humidity alone”.

Consider `CCc1nc(C(N)=O)c(Nc2ccc(N3CCC(N4CCN(C)CC4)CC3)c(OC)c2)nc1NC1CCOCC1` [Compound A, 6-Ethyl-3-({3-methoxy-4-[4-(4-methylpiperazin-1-yl)piperidin-1-yl]phenyl}amino)-5-(tetrahydro-2H-pyran-4-ylamino)pyrazine-2-carboxamide], for which, in series [3], the “Inhibitory activity of a kinase activity of EML4-ALK fusion protein” value is recorded as “inhibitory activity”.
